Data set [1] is described as follows: Toxicity: maximum tolerated dose in the mouse, oral route. The following applies: in vivo.
The test system of data set [2] is atheromatic deposits in the aorta. Kind of data set: Effect on atheromatic deposits in the aorta (visual examination, scale 0 to 5) in cholesterol-fed rabbits. It is filed as in vivo, rabbit (male albino Bouscat). The settings on record: for Extent of atheromatic deposit: rabbit; for Activity ranking (anti-atheromatic): conclusion over both tests in rabbits. From the text: (§1) 2. Effect on atheromatic deposits in the aorta and on plasma cholesterol in the rabbit
(§2) In order to create atheromatic lesions experimentally, male albino Bouscat rabbits having an average weight of 2.5 kg are fed on a Provende UAR rabbit diet plus 1 or 2% of cholesterol.
(§3) At the end of 11 to 12 weeks, the animals are sacrificed by having their carotid arteries cut after being anaesthetised with Nembutal and the aorta is removed from lowermost point to the iliac fork, cut open longitudinally and spread out upon a cork board. After fixing with formaldehyde and staining with a 2% aqueous solution of acid fuchsin, pearly white atheromatic spots are apparent against the red background which enables the extent of the deposit to be evaluated quantitatively on a scale from 0 to 5 with 0 corresponding to an absence of lesions and 5 to diffuse lipid deposits covering the whole of the endothelium.
(§4) In a first test, 60 male rabbits each weighing 2.5 kg are fed on the diet detailed below:
(§5) 5 weeks : diet containing 2% of cholesterol
(§6) 3 weeks : diet containing 1% of cholesterol
(§7) From the beginning the animals are divided into 6 batches of 10 animals each which respectively receive, for the whole duration of the diet, the following products for 5 days per week by the digestive route using an oesophagal probe:
(§8) All the products are administered in suspension in the same volume of gum arabic (5 ml).
(§9) At the end of 12 weeks, visual examination of the atheromatic lesions in the aorta gave the results shown in Table II, the numerical data giving the average extent of deposit in each batch.
(§10) In a second test, using the same experimental method, the two following derivatives were studied in the doses indicated below: […]

The subject of the next data set is aortic cholesterol. Kind of data set: Aortic cholesterol in cholesterol-fed rabbits (Folch extraction, Liebermann-Burchard method). It is filed as in vivo, rabbit (male albino Bouscat). The following applies: rabbit.
Source text: as §1, §2, §3
After the inside layers of the wall of the aorta have been separated, all the lipids are extracted by the method of Folch et at. The amount of cholesterol is then determined using the Liebermann-Burchard method.
as §4, §5, §6, §7, §8, §9, §10

The next data set has as its system plasma cholesterol. The experiment in a line: Plasma cholesterol in cholesterol-fed rabbits (Pearson method, Technicon auto-analyser). It is filed as in vivo, rabbit (male albino Bouscat). The settings on record: rabbit. How it is done: as §1, §2
Moreover, a check on the plasma cholesterol is carried out at regular intervals during the test using the Pearson method as adopted to the Technicon auto-analyser by Boy, Bonnafe and Mazet (Applicant's own method).
as §4, §5, §6, §7, §8, §9, §10

Data set [3] can be described thus: Solubility in the standard solvents. It is filed as physicochemical. The following applies: all the standard solvents.
Setting [4] is: first test, 200 mg/kg oral (oesophagal probe), 5 days per week, 12 weeks, scale 0 (no lesions) to 5 (diffuse deposits), batch average, diet only 3.5.
[5] abbreviates: first test, 200 mg/kg oral (oesophagal probe), 5 days per week, 12 weeks, diet only 20.43.
Setting [6] is: first test, 200 mg/kg oral (oesophagal probe), 5 days per week, 12 weeks, diet only 1.47.
Setting [7] is: second test, 50 mg/kg, same experimental method, scale 0 to 5, diet only 4.
The mark [8] stands for this setting: second test, 50 mg/kg, same experimental method, diet only 22.1.
Setting [9] is: second test, 50 mg/kg, same experimental method, diet only 2.5.

Counter-ions that a name gives are not always drawn.

Usually MTD stands for the largest dose that counted as tolerated. A higher MTD goes with a wide tolerated range. As for `N[C@@H](CSCC=Cc1ccccc1)C(=O)O` [LJ 536, L β-(3-phenyl-propen-2-ylthio) α-amino propanoic acid], in data set [1], the maximum tolerated dose (MTD) was 4000 mg/kg. The “Extent of atheromatic deposit” value in data set [2] (setting [4]) is on record as 2.05. Also, the Aortic cholesterol in the data set with aortic cholesterol (setting [5]) came to 12.21 mg/kg. The Plasma cholesterol with plasma cholesterol (setting [6]) stood at 1.2 g/L.
In the same order, the values of `CC(=Cc1ccccc1)CCSC[C@H](N)C(=O)O` [LJ 540, L β-(4-phenyl-3-methylbuten-3-ylthio) α-aminopropanoic acid] are ≥ 10000 mg/kg, 2.60, 15.00 mg/kg and 1.29 g/L.
Taken in the same sequence, the figures for `C=CCSC[C@H](NC(=O)CC[C@H](N)C(=O)O)C(=O)NCC(=O)O` [LJ 545, L γ-glutamyl-S-allylcysteinyl glycine] were ≥ 10000 mg/kg, 2.70, 14.38 mg/kg and 1.36 g/L.
For `N[C@@H](CSCc1cccnc1)C(=O)O` [LJ 546, L β-[(pyridyl-3)methylthio]α-amino propanoic acid], the MTD in data set [1] came to 9000 mg/kg. For the same compound, the “Activity ranking (anti-atheromatic)” value in data set [2] is reported as “the most active”. Also, the “Extent of atheromatic deposit” value in data set [2] (setting [4]) is on record as 1.85. In the data set with aortic cholesterol (setting [5]), this compound had an Aortic cholesterol of 10.72 mg/kg. Further, in the data set on plasma cholesterol (setting [6]), the Plasma cholesterol came to 0.99 g/L.
In turn, `CC(SC[C@H](N)C(=O)O)c1ccc(Cl)cc1` (stereo partly drawn) [LJ 550, L β-[1-(p-chlorophenyl)ethylthio]α-amino propanoic acid] had an MTD in data set [1] of 4000 mg/kg. Further, the “Activity ranking (anti-atheromatic)” value in data set [2] is “the most active”. The “Extent of atheromatic deposit” value in data set [2] (setting [4]) was 2. In addition, the Aortic cholesterol in the data set with aortic cholesterol (setting [5]) is reported as 11.90 mg/kg. Besides, the Plasma cholesterol with plasma cholesterol (setting [6]) is 1.17 g/L. The Solubility result in data set [3] is recorded as “practically insoluble in all the standard solvents”.
Compound `CC(C)=CCC/C(C)=C/CSC[C@H](N)C(=O)O` [LJ 558, S-geranylcysteine] displayed an MTD in data set [1] of 8000 mg/kg.
`C=CCSC[C@H](N)C(=O)OCC` [LJ 565, Ethyl L β-(propen-2-ylthio) α-amino propanoate hydrochloride] showed an MTD in data set [1] of 1500 mg/kg. In addition, in data set [2], the “Activity ranking (anti-atheromatic)” value was “the most active”. For the same compound, the “Extent of atheromatic deposit” value in data set [2] (setting [7]) worked out at 2.3. This compound also displayed an Aortic cholesterol with aortic cholesterol (setting [8]) of 15 mg/kg. Also, the Plasma cholesterol with plasma cholesterol (setting [9]) was found to be 2.1 g/L.
Compound `C=CCSC[C@H](N)C(=O)OC(C)C` [LJ 566, Isopropyl L β-(propen-2-ylthio) α-aminopropanoate hydrochloride] yielded an MTD in data set [1] of 1500 mg/kg. The “Activity ranking (anti-atheromatic)” value in data set [2] is “the most active”. In data set [2] (setting [7]), the “Extent of atheromatic deposit” value was found to be 2.8. In the data set with aortic cholesterol (setting [8]), this compound registered an Aortic cholesterol of 17.3 mg/kg. Moreover, the Plasma cholesterol in the data set with plasma cholesterol (setting [9]) came to 2.3 g/L.
